How the values were obtained:
[1] = target: T1, microtubular protein (tubulin) from pig brains (Sus scrofa, UniProt P02550+P02554); assay: Inhibition of tubulin polymerization (turbidimetry at 340 nm); assay type: biochemical; settings: pig brain microtubular protein 1 mg/ml, 0.25 mmol GTP, 37° C.
T1 construct: microtubular protein was purified from pig brains via cydic assembling/disassembling; from tissue; host or cells: pig brain
Protocol: The in-vitro testing of the tubulin polymerization influence was performed as follows:
The buffer system used had the following composition: 20 mmol of PIPES (1,4-piperazine-diethane-sulfonic acid, pKa 6.8), 80 mmol of NaCl, 0.5 mmol of MgCl2, 1 mmol of EGTA (ethylene glycol-bis-(2-aminoethylene)-tetraacetic acid).
For active ingredient testing, protein concentrations of 1 mg/ml (about 10^−5 mmol of tubulin) were used. The determination of protein was carried out according to the Lowry Method (Lowry et al. J. Biol. Chem. 1951, 193, 265-75) with bovine serum albumin as a standard. The assembling of microtubuli was carried out in the presence of 0.25 mmol of GTP and heating the samples to 37° C.
The microtubulus formation was examined by means of turbidimetry at a wavelength of 340 nm.
Testing of the active ingredients was carried out by their addition at the beginning of the assembling or in the state of equilibrium. Deviations of turbidity curves from the control characterize its activity. To monitor action and to evaluate the measured turbidity values, a transmission electron microscopic study (CEM 902 A, Zeiss/Oberkochen) of the assemblates was always performed after negative staining with 1% aqueous uranyl acetate.

[2] = system: NCl-H460 human non-small-cell lung cancer cells; assay: Inhibition of cell proliferation (crystal violet), NCl-H460; assay type: cell-based; settings: NCl-H460, 4 days incubation
Protocol: (§1) Cell cultures of the following cell lines were prepared in 96-well microtiter plates: • 1. MaTu/ADR multidrug-resistant human breast tumor cells (Epo GmbH Berlin), 5000 cells/well. • 2. HCT116 human colon tumor cells (ATCC CCL-247), 3000 cells/well. • 3. NCl-H460 human non-small-cell lung cancer cells (ATCC HTB-177), 3000 cells/well. • 4. DU145 human prostate tumor cells (ATCC HTB-81), 5000 cells/well. • 5. HMVEC human primary dermal microvascular endothelial cells, 7500 cells/well.
(§2) After 24 hours of incubation in a cell culture incubator at 37° C., the cells of a microtiter plate were stained with crystal violet (reference plate), while the cells in the test plates were incubated for 4 days with the test substances in the concentrations […], as well as with the DMSO solvent by itself (solvent control). The cell proliferation was determined by staining cells with crystal violet. The extinction of the crystal violet was determined by photometry at 595 nm. The percentage of the change in the cell number in the test plates was determined after the extinction values were normalized to the reference plate (0%) and to the solvent control (100%). The semi-maximal inhibition of the cell growth (IC50) was determined as the substance concentration, in which 50% of the cell number of the solvent controls were present.

[3] = system: HCT116 human colon tumor cells; assay: Inhibition of cell proliferation (crystal violet), HCT116; assay type: cell-based; settings: HCT116, 4 days incubation
Protocol: as §1, §2

[4] = system: DU145 human prostate tumor cells; assay: Inhibition of cell proliferation (crystal violet), DU145; assay type: cell-based; settings: DU145, 4 days incubation
Protocol: as §1, §2

[5] = system: MaTu/ADR multidrug-resistant human breast tumor cells; assay: Inhibition of cell proliferation (crystal violet), MaTu/ADR; assay type: cell-based; settings: 4 days incubation
Protocol: as §1, §2

[6] = system: HMVEC human primary dermal microvascular endothelial cells; assay: Inhibition of cell proliferation (crystal violet), HMVEC; assay type: cell-based; settings: 4 days incubation
Protocol: as §1, §2

T1 sequence (P02550 whole entry): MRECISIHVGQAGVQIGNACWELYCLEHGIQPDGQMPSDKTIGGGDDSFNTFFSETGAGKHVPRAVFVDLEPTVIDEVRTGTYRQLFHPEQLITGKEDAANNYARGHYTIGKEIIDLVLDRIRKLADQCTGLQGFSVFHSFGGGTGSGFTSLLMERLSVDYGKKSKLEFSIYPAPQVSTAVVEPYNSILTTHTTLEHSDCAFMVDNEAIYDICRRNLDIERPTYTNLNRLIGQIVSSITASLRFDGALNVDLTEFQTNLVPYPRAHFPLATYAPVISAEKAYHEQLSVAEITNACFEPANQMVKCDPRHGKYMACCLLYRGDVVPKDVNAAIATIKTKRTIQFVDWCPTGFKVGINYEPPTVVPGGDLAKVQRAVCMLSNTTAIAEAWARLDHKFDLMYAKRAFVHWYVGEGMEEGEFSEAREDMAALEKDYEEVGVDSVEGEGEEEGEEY
T1 sequence (P02554 whole entry): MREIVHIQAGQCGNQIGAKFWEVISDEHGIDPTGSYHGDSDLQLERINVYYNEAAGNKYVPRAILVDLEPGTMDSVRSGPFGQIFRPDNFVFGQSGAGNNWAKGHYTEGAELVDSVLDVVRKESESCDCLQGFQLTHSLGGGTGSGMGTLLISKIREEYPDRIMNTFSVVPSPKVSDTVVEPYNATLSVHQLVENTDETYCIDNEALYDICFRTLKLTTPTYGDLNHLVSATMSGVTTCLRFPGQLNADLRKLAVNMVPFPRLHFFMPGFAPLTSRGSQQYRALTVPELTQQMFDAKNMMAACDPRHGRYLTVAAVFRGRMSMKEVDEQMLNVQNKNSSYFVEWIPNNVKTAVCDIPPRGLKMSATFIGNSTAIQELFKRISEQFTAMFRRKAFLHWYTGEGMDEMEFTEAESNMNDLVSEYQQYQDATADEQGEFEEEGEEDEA

## COc1cc2c(cc1O)CC[C@@H]1[C@@H]2CC[C@]2(C)[C@@H](O)CC[C@@H]12 [2-Methoxyestradiol, reference compound]
[1]
  IC50: 2700 nM
[2]
  IC50: 1800 nM
[3]
  IC50: 1100 nM
[4]
  IC50: 1900 nM
[5]
  IC50: 200 nM
[6]
  IC50: 2200 nM

## CC[C@]12CC[C@@H]3c4cc(OC)c(OS(N)(=O)=O)cc4CC[C@H]3[C@@H]1CC[C@@H]2O [(1), 17β-Hydroxy-2-methoxy-18a-homoestra-1,3,5(10)-trien-3-yl sulfamate]
[1]
  IC50: 500 nM
[2]; Homo sapiens, 96 h
  IC50: < 100 nM
[3]; Homo sapiens, HCT-116, 96 h
  IC50: < 100 nM
[4]; Homo sapiens, DU-145, 96 h
  IC50: 150 nM
[5]; Homo sapiens, 96 h
  IC50: < 100 nM
[6]; Homo sapiens, 96 h
  IC50: < 100 nM

## CCOc1cc2c(cc1OS(N)(=O)=O)CC[C@@H]1[C@@H]2CC[C@]2(CC)[C@@H](O)CC[C@@H]12 [(2), 2-Ethoxy-17β-hydroxy-18a-homoestra-1,3,5(10)trien-3-yl sulfamate]
[2]
  IC50: 300 nM
[3]
  IC50: 400 nM
[4]
  IC50: 900 nM
[5]
  IC50: 100 nM
[6]
  IC50: 500 nM

## CC[C@@]12CCC[C@H]1[C@@H]1CCc3cc(OS(N)(=O)=O)c(OC)cc3[C@H]1CC2 [(4), 2-Methoxy-18a-homoestra-1,3,5(10)-trien-3-yl sulfamate]
[1]
  IC50: 1800 nM
[2]; Homo sapiens, 96 h
  IC50: 500 nM
[3]; Homo sapiens, HCT-116, 96 h
  IC50: 600 nM
[4]; Homo sapiens, DU-145, 96 h
  IC50: 600 nM
[5]; Homo sapiens, 96 h
  IC50: 450 nM
[6]; Homo sapiens, 96 h
  IC50: 600 nM

## CC[C@]12CC[C@@H]3c4cc(OC)c(OS(N)(=O)=O)cc4CC[C@H]3[C@@H]1CC[C@@H]2OC [(5), 2,17β-Dimethoxy-18a-homoestra-1,3,5(10)-trien-3-yl Sulfamate]
[2]
  IC50: 130 nM
[3]
  IC50: < 100 nM
[4]
  IC50: 190 nM
[5]
  IC50: < 100 nM
[6]
  IC50: < 100 nM

## CCc1cc2c(cc1OS(N)(=O)=O)CC[C@@H]1[C@@H]2CC[C@]2(CC)[C@@H](OS(N)(=O)=O)CC[C@@H]12 [(6), 2-Ethyl-18a-homoestra-1,3,5(10)-triene-3,17β-diyl Sulfamate]
[2]
  IC50: 180 nM
[3]
  IC50: 180 nM
[4]
  IC50: 180 nM
[5]
  IC50: 100 nM
[6]
  IC50: < 100 nM

## CC(=O)O[C@H]1C(=O)[C@@]2(C)[C@H]([C@H](OC(=O)c3ccccc3)[C@]3(O)C[C@H](OC(=O)[C@H](O)[C@@H](NC(=O)c4ccccc4)c4ccccc4)C(C)=C1C3(C)C)[C@]1(OC(C)=O)CO[C@@H]1C[C@@H]2O [Taxol, reference compound]
[2]; Homo sapiens, 96 h
  IC50: 4 nM
[3]; Homo sapiens, HCT-116, 96 h
  IC50: 4 nM
[4]; Homo sapiens, DU-145, 96 h
  IC50: 4 nM
[5]; Homo sapiens, 96 h
  IC50: 400 nM
[6]; Homo sapiens, 96 h
  IC50: 4 nM
